Measured values: publication PMC8426238, “Synthesis and preclinical evaluation of [^11C]MTP38 as a novel PET ligand for phosphodiesterase 7 in the brain” (European Journal of Nuclear Medicine and Molecular Imaging, 2021)

Key:
[1] = system: PDE7; set-up: method as in PMID 26330158; conditions: living rodent brains; cited from earlier work
[2] = system: PDE7; assay: In vitro autoradiography of rat brain sections with [^11C]MTP38; assay type: binding, Sprague-Dawley rats
Method: (§1) In vitro autoradiography was performed using 20-μm-thick fresh-frozen brain sections derived from Sprague-Dawley rats and rhesus monkeys. The sections were preincubated for 10 min in 50 mM Tris-HCl buffer (pH 7.4) at room temperature. These samples were then incubated for 60 min at room temperature in fresh buffer containing [^11C]MTP38 (2 nM) with or without unlabeled MTP38 (10 μM), MTP-X (4 μM), or MT-3014 (40 nM). The concentrations of MTP-X and MT-3014 were more than 400-fold of reported IC50 values of these agents. After the incubation, the brain sections were immersed twice in cold buffer for 3 min, dipped in cold distilled water for 10 s, and dried with warm airflow. Then the sections were contacted with imaging plates (BAS-MS2025, Fujifilm, Tokyo, Japan) for 60 min. The imaging plates were scanned with an imaging plate reader (BAS5000, Fujifilm, Tokyo, Japan), and the images were analyzed with the MultiGuage software (ver. 3.0, Fujifilm, Tokyo, Japan).

[3] = system: PDE7; assay: In vitro autoradiography of monkey brain sections with [^11C]MTP38; assay type: binding, rhesus monkeys; conditions: 2 nM
Method: as §1

[4] = system: PDE7; assay: PET imaging in monkeys with [^11C]MTP38; assay type: in vivo, rhesus monkeys; conditions: for Striatal BPND: MRTMo, cerebellar reference
Method: Each monkey underwent multiple PET scans with intervals longer than 2 weeks. The monkeys were given an intramuscular injection of 0.04 mg/kg of atropine sulfate at 1.5 h before radioligand injection. They were subsequently anesthetized with an intramuscular injection of ketamine (5 mg/kg) and xylazine (0.5 mg/kg), intubated, and kept anesthetized with 1–2% isoflurane. Heart rate, electrocardiogram, body temperature, blood oxygen saturation level, and end-tidal CO2 were monitored during the PET scan. The monkeys were placed on a bed in a supine position, and the head was fixed at the center of the field of view of a microPET scanner Focus220. A transmission scan was performed for about 20 min using a ^68Ge-^68Ga point source. A 90-min list-mode data acquisition was started simultaneously with intravenous administration of [^11C]MTP38 via a saphenous vein cannula. All list-mode data were sorted into 3D sinograms, which were then Fourier-rebinned into 2D sinograms (frames: 10 s × 6, 30 s × 8, 1 min × 5, 2 min × 10, and 5 min × 12). The images were corrected for attenuation and reconstructed with a filtered back-projection algorithm using a Hanning filter with a cut-off at the Nyquist frequency (0.5 mm^−1).
Along with baseline scans, we carried out blocking PET experiments according to the following pretreatment protocols: (1) unlabeled MTP38 was administered as an intravenous bolus (0.075 mg/kg) at 1 h before radioligand injection followed by continuous infusion at a rate of 0.3 mg/kg/h until the end of the PET scan, and (2) MTP-X (0.3–30 mg/kg) was administered orally at 2 or 6 h before radioligand injection.
(§2) PET scans for monkeys at baseline and following pretreatment with unlabeled MTP38, and 3, 10, 30 mg/kg of MTP-X were performed along with arterial blood sampling to obtain a metabolite-corrected input function. In total, 22 arterial blood samples were collected manually with heparinized syringes via a saphenous artery contralateral to the radioligand injection. Sampling was performed at 10, 20, 30, 40, 50, 60, 75, 90, 105, 120, 150, 180, and 210 s and at 4, 5, 10, 20, 30, 45, 60, 75, and 90 min after radioligand injection. Blood samples were then placed on ice and divided into two aliquots, one of which was centrifuged with a refrigerated centrifuge (15,000×g, 3 min, 4 °C) to obtain plasma.
PET images were co-registered onto the individual MR images. ROIs were placed on the prefrontal and medial frontal cortices, hippocampus, amygdala, striatum (caudate + putamen), nucleus accumbens, thalamus, cerebellum (gray matter), and brainstem. TACs in the baseline and blockade experiments were generated for each ROI.
Regional TACs were examined by several analytical methods to calculate the regional total distribution volume (VT), which represents the sum of non-specific and specific radioligand binding. Compartment model (1- or 2-tissue) and Logan’s graphical analyses were employed for describing the radioligand kinetics in the brain. The fractional blood volume was fixed at 0.05. For compartment model analyses, an optimal model was chosen on the basis of Akaike’s information criterion (AIC) and model selection criterion (MSC). For graphical analyses, an equilibration time t* was determined so that by the maximum error from the regression within the linear segment was considered to be 10% for each TAC. Time stability of VT was investigated by truncating the data duration stepwise from 90 min to 30 min. The VT values with or without pretreatment with a blocker were then compared. We also validated the use of the cerebellum as a reference tissue by this comparison, in addition to the autoradiographic findings, in monkey brain slices. The non-displaceable binding potential (BPND) was calculated by the original multilinear reference tissue model (MRTMO). t* was determined in the same manner as Logan’s graphical analysis. […]

[5] = system: PDE7; assay: PET imaging in rats with [^11C]MTP38; assay type: in vivo, Wistar rats
Method: Each rat was scanned multiple times with a shortest interval of 1 month. Rats were anesthetized with isoflurane (3% for induction and 2% for maintenance) throughout the experiment. The tail vein was cannulated for radioligand injection. Body temperature was maintained at around 37 °C using a heating pad. The head of the rat was fixed at the center of the field of view of an animal PET scanner (microPET Focus220, Siemens Medical Solutions, Malvern, USA). A 90-min list-mode data acquisition was started simultaneously with intravenous administration of [^11C]MTP38. The list-mode data were sorted into 3D sinograms, which were then Fourier-rebinned into 2D sinograms (frames: 10 s × 6, 30 s × 8, 1 min × 5, 2 min × 10, and 5 min × 12). The sinograms were reconstructed with a filtered back-projection algorithm using a Hanning filter with a cut-off at the Nyquist frequency (0.5 mm^−1).
Along with baseline scans, we conducted blockade PET experiments according to the following pretreatment protocols: (1) unlabeled MTP38 (0.5 mg/kg) was administered intravenously at 2 min before radioligand injection, and (2) MTP-X (100 mg/kg) was administered orally at 1 h before radioligand injection.
PET images were co-registered manually onto the magnetic resonance (MR) template image. Details of co-registration were described elsewhere. Regions of interest (ROIs) were placed on the striatum as a target region and on the cerebellum (gray matter) as a reference region according to the expression of PDE7B mRNA in the rat brain [6], and time-activity curves (TACs) were generated for each ROI. Radioactivity in the brain was normalized with injected radioactivity and body weight, and expressed as standardized uptake value (SUV). Then the SUV ratio between the striatum and cerebellum was obtained to estimate the radioligand binding in the target region in baseline and blockade experiments.

[6] = Radiometabolite analysis of arterial plasma; assay type: in vivo, rhesus monkeys; conditions: monkey; 90 min after injection
Method: as §2
Radioactivity in blood and plasma was measured with an auto-gamma counter (wizard 2480, PerkinElmer, Waltham, MA, USA). […] An aliquot of supernatant (< 1 mL) was injected into an HPLC system (JASCO, Tokyo, Japan) equipped with a radioactivity detector (column: CAPCELL PAK AQ, 5 μm, 10 × 250 mm; column temperature: room temperature; mobile phase: 45% CH3CN; flow rate: 6.0 mL/min). The fraction of the parent [^11C]MTP38 was calculated as a ratio of the peak area of MTP38 to the total area of peaks found on the radiochromatograms. Then, an arterial input function was determined by quantifying the metabolite-corrected arterial plasma radioactivity concentration.

[7] = monkey, baseline, Logan's graphical analysis, means of two animals

O=C1Nc2c(Cl)ccc(OCC[18F])c2C2(CCCCC2)N1 [[^18F]MICA-003]
in vivo metabolism [1]: rapid metabolic conversion to a brain-entering radiomolecule

Cc1nc2ccc(F)cc2nc1-c1cc2nc(N3CC[C@@H](F)C3)cc(NCC(C)(C)O)n2n1 [MT-3014, reference compound]
effect of blocker on striatal radioactivity of [^11C]MTP38 ([2]; [^11C]MTP38 2 nM, unlabeled MTP38 10 μM, MTP-X 4 μM, MT-3014 40 nM): did not change the radioligand binding

C[C@@H]1CC[C@H](C)N(c2nnc3c(N)ncc([11C]#N)n23)C1 [[^11C]MTP38]
radioligand reactivity in the striatum ([2]; 2 nM): high radioligand reactivity in the striatum
radioligand reactivity in the striatum [3]: high radioligand reactivity in the striatum
Striatal BPND ([4]; monkey #1, baseline): 0.409
Striatal BPND ([4]; monkey #2, baseline): 0.287
Regional VT, AMY (amygdala) [4, 7]: 2.50 mL/cm^3
Regional VT, BS (brainstem) [4, 7]: 3.13 mL/cm^3
Regional VT, CB (cerebellum) [4, 7]: 2.69 mL/cm^3
Regional VT, HIP (hippocampus) [4, 7]: 2.38 mL/cm^3
Regional VT, MFC (medial frontal cortex) [4, 7]: 3.27 mL/cm^3
Regional VT, NAc (nucleus accumbens) [4, 7]: 2.97 mL/cm^3
Regional VT, PFC (prefrontal cortex) [4, 7]: 2.93 mL/cm^3
Regional VT, STR (striatum) [4, 7]: 3.59 mL/cm^3
Regional VT, THA (thalamus) [4, 7]: 3.03 mL/cm^3
k3 (2-tissue compartment model) ([4]; monkey, some ROIs including the striatum, model failed to estimate VT): < 0.0001 min⁻¹
maximal SUV in brain ([4]; monkeys, iv): ~5
time of brain radioactivity peak after injection ([4]; monkeys, iv): 3 to 4 min
striatum-to-cerebellum ratio of SUV ([5]; baseline, plateau from 5 min): ~1.5
SUV in the striatum and cerebellum at 90 min ([5]; iv, 90 min): below 1.0
peak SUV in the striatum and cerebellum ([5]; iv, baseline): exceeding 4.0
time of SUV peak after injection ([5]; iv, striatum and cerebellum): ≤ 1 min
fraction of unmetabolized [^11C]MTP38 of total radioactivity in plasma [6]: 27.2%
